# Source: PubChem BioAssay (NCI)
# Values joined by “and” are separate entries in the source; they are usually repeats but may differ in a detail not shown here. Identical values can stand only once.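 Five compound concentrations were applied to cells in 96-well plates for 48 hours; endpoints were derived by simple linear interpolation of the resulting dose-response curve. GI50: concentration for 50% inhibition of growth. TGI: total growth inhibition.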
# Assays:
# Experiment in all cases: NCI tumour cell line growth inhibition, 48 h
# [1] = system: A498 renal
# [2] = system: DU-145 prostate
# [3] = system: HCT-15 colon
# [4] = system: HL-60(TB) leukemia
# [5] = system: HOP-62 NSCLC
# [6] = system: HT29 colon
# [7] = system: M14 melanoma
# [8] = system: MDA-MB-231 breast
# [9] = system: NCI-H23 lung
# [10] = system: OVCAR-8 ovarian
# [11] = system: RXF 393 renal
# [12] = system: SF-539 CNS
# [13] = system: SK-MEL-2 melanoma
# [14] = system: SK-MEL-28 melanoma
# [15] = system: SN12C renal
# [16] = system: SW-620 colon
SMILES,TGI [1],TGI [2],TGI [3],TGI [4],TGI [5],TGI [6],TGI [7],TGI [8],TGI [9],TGI [10],TGI [11],TGI [12],TGI [13],TGI [14],TGI [15],TGI [16],GI50 [1],GI50 [5],GI50 [9],GI50 [14]
C/C=C/CC(C(=O)OCC)(N(C)C(=O)OC(C)(C)C)S(=O)(=O)c1ccc(C)cc1 (stereo not drawn),> 100 µM,> 100 µM,> 100 µM,> 100 µM,> 100 µM,> 100 µM,> 100 µM,> 100 µM,> 100 µM,> 100 µM,> 100 µM,> 100 µM,> 100 µM,> 100 µM,> 100 µM,> 100 µM,–,–,–,–
CCCNC1=C2C[C@@H](C)C[C@@H](OC)[C@@H](OC(=O)CCCN)[C@H](C)/C=C(\C)[C@@H](OC(N)=O)[C@H](OC)/C=C\C=C(/C)C(=O)NC(=CC1=O)C2=O,37.1 µM,26.3 µM,46.8 µM,8.01 µM,31.3 µM,22.9 µM,32.3 µM,36.7 µM,29.4 µM,43.7 µM,33.3 µM,39.9 µM,30.9 µM,36.1 µM,> 48.8 µM,> 43.8 µM,–,–,–,–
O=C(O)c1cc(N=Nc2ccc([N+](=O)[O-])cc2)ccc1O,46.6 µM,> 100 µM,> 100 µM,73.7 µM,> 100 µM,> 100 µM,> 100 µM,> 100 µM,> 100 µM,> 100 µM,> 100 µM,> 100 µM,78.8 µM,> 100 µM,> 100 µM,> 100 µM,–,–,–,–
COc1ccc(/C=C2/N=C(N/N=C\C(O)C(O)C(O)CO)NC2=O)cc1 (stereo not drawn),> 100 µM,> 100 µM,> 100 µM,> 100 µM,> 100 µM,> 100 µM,> 100 µM,> 100 µM,> 100 µM,> 100 µM,> 100 µM,40.1 µM,> 100 µM,> 100 µM,> 100 µM,> 100 µM,> 100 µM and 32.6 µM,> 100 µM and 49.6 µM,> 100 µM and 42.1 µM,> 100 µM and 31.3 µM
